Read-outs that look alike come from different tables or passages of the source.
How the values were obtained:
[1] = system: Leishmania amazonensis promastigotes expressing beta-lactamase; assay: microbe, parasite or virus in culture; type: cell-based; conditions: for IC50: Leishmania amazonensis
[2] = system: rat skeletal muscle cell line, L6; assay: cells; type: cell-based
[3] = system: Trypanosoma cruzi Tulahuen cells expressing beta-galactosidase; assay: T. cruzi intracellular assay (beta-galactosidase, L6 host cells); conditions: for Selectivity L6/Tc-I: Table 3B; for Selectivity L6/Tc-I / Selectivity L6/TC-I: estimated from highest L6 dose tested where no L6 IC50; for IC50: Trypanosoma cruzi, TULAHUEN; for Selectivity L6/TC-I: Table 3A
[4] = system: Trypanosoma brucei brucei 427 cells; assay: T. brucei culture and assay (PrestoBlue); type: cell-based; conditions: for IC50: mean of 2(+) independent trials, read-out: IC50 T. brucei
[5] = Table 2, L6 IC50 / L. amazonensis IC50
[6] = Rattus norvegicus, Table 1, read-out: IC50 Toxicity (L6)
[7] = Rattus norvegicus, Table 3B, weighted means of two or more independent trials, read-out: IC50 L6
[8] = Table 2, L6 mammalian cells, read-out: IC50 Toxicity (L6)
[9] = Table 1, intracellular T. cruzi IC50
[10] = Table 2, L6 IC50 / T. cruzi IC50 (intracellular assay)
[11] = read-out: IC50 T. cruzi, Table 1, intracellular assay, mean of 2(+) trials (^c one trial)
[12] = read-out: IC50 T. cruzi, Table 2, intracellular assay, mean of 2(+) independent trials
[13] = read-out: IC50 TC-I, Table 3B, weighted means of two or more independent trials
[14] = Table 2, L6 IC50 / T. brucei IC50
[15] = Table 3B, estimated from highest L6 dose tested where no L6 IC50
[16] = Rattus norvegicus, Table 3A, weighted means of two or more independent trials, read-out: IC50 L6
[17] = read-out: IC50 TC-I, Table 3A, weighted means of two or more independent trials
[18] = read-out: IC50 L. amaz. (footnote c: value obtained from one trial)

Structure (SMILES)	IC50 ([1]; read-out: IC50 L. amaz.)	Selectivity L6/La ([1]; Table 1)	Selectivity L6/La [1, 5]	IC50 [2, 6]	IC50 [3, 11]	IC50 [3, 12]	IC50 ([4]; Trypanosoma brucei, Table 1)	melting point	other results
O=C1/C(=C/c2ccsc2)Oc2ccccc21 [Aurone 3004, (Z)-2-(thiophen-3-ylmethylene)benzofuran-3(2H)-one]	24.2 µM	>4.13	>4.13	> 100 µM	9.02 µM	9.02 µM	38.7 µM	125 to 126 °C	IC50 [2, 7]: > 100 µM; IC50 [2, 8]: > 100 µM; Selectivity L6/Tc [3, 9]: >11.09; Selectivity L6/Tc [3, 10]: >11.09; Selectivity L6/Tc-I [3]: >11.09; IC50 [3, 13]: 9.02 µM; IC50 ([3]; read-out: T. cruzi IC50 dose): 9.02 µM; activity against T. brucei [4]: moderate activity; Selectivity L6/Tb ([4]; Table 1): >2.58; Selectivity L6/Tb [4, 14]: >2.58; Selectivity L6/Tb [4, 15]: >2.58
O=C1/C(=C/c2ccoc2)Oc2ccccc21 [Aurone 3005, (Z)-2-(furan-3-ylmethylene)benzofuran-3(2H)-one]	42.7 µM	>2.34	>2.34	> 100 µM	7.47 µM	7.47 µM	41.9 µM	111 to 112 °C	IC50 [2, 7]: > 100 µM; IC50 [2, 8]: > 100 µM; Selectivity L6/Tc [3, 9]: >13.39; Selectivity L6/Tc [3, 10]: >13.39; Selectivity L6/Tc-I [3]: >13.39; IC50 [3, 13]: 7.47 µM; Selectivity L6/Tb ([4]; Table 1): >2.39; Selectivity L6/Tb [4, 14]: >2.39; Selectivity L6/Tb [4, 15]: >2.39
CC(=O)Nc1ccc(/C=C2\Oc3ccccc3C2=O)cc1 [Aurone 3006, (Z)-N-(4-((3-oxobenzofuran-2(3H)-ylidene)methyl)phenyl)acetamide]	12.5 µM	>7.99	–	> 100 µM	> 50 µM	–	> 50 µM	260 to 270 °C	IC50 ([2]; Rattus norvegicus, Table 3C, weighted means of two or more independent trials, read-out: IC50 L6): > 100 µM; IC50 ([3]; read-out: IC50 TC-I, Table 3C, intracellular T. cruzi, weighted means of two or more independent trials): > 50 µM
CC(C)(C)c1ccc(/C=C2\Oc3ccccc3C2=O)cc1 [Aurone 3008, (Z)-2-(4-(tert-butyl)benzylidene)benzofuran-3(2H)-one]	3.57 µM	27.81	27.81	99.3 µM	> 50 µM	> 50 µM	> 50 µM	87 to 90 °C	IC50 [2, 16]: 99.3 µM; Selectivity L6/TC-I [3]: 7.94; IC50 [3, 17]: 12.5 µM; IC50 ([4]; Table 2): > 50 µM
CCCCc1ccc(/C=C2\Oc3ccccc3C2=O)cc1 [Aurone 3009, (Z)-2-(4-butylbenzylidene)benzofuran-3(2H)-one]	2.36 µM	14.84	14.84	35 µM	> 50 µM	> 50 µM	> 50 µM	80 to 81 °C	IC50 [2, 16]: 35 µM; Selectivity L6/TC-I [3]: 4.38; IC50 [3, 17]: 7.99 µM; IC50 ([4]; Table 2): > 50 µM
O=C1/C(=C/c2ccc(Br)cn2)Oc2ccccc21 [Aurone 3011, (Z)-2-((5-bromopyridin-2-yl)methylene)benzofuran-3(2H)-one]	2.61 µM	>38.31	>38.31	> 100 µM	32.9 µM	32.9 µM	> 50 µM	192 to 193 °C	IC50 [2, 7]: > 100 µM; IC50 [2, 8]: > 100 µM; Selectivity L6/Tc [3, 9]: >3.04; Selectivity L6/Tc [3, 10]: >3.04; Selectivity L6/Tc-I [3]: >3.04; IC50 [3, 13]: 32.9 µM; IC50 ([4]; Table 2): > 50 µM
COc1cccc(/C=C2\Oc3ccc(C)cc3C2=O)c1O [Aurone 4003, (Z)-2-(2-hydroxy-3-methoxybenzylidene)-5-methylbenzofuran-3(2H)-one]	13.4 µM	>7.45	–	> 100 µM	> 50 µM	–	27.7 µM	134 to 137 °C	Selectivity L6/Tb ([4]; Table 1): >3.61
COc1ccc2c(c1)O/C(=C\c1cccs1)C2=O [Aurone 5001, (Z)-6-methoxy-2-(thiophen-2-ylmethylene)benzofuran-3(2H)-one]	21.1 µM	>4.73	–	> 100 µM	> 50 µM	–	> 50 µM	99 to 103 °C	–
COc1ccc2c(c1)O/C(=C\c1ccc(C)cc1)C2=O [Aurone 5002, (Z)-6-methoxy-2-(4-methylbenzylidene)benzofuran-3(2H)-one]	10.5 µM	–	–	183 µM	> 50 µM	> 50 µM	40.7 µM	115 to 122 °C	–
COc1ccc2c(c1)O/C(=C\c1ccc(Br)cc1)C2=O [Aurone 5005, (Z)-2-(4-bromobenzylidene)-6-methoxybenzofuran-3(2H)-one]	14.3 µM	–	–	181 µM	> 50 µM	> 50 µM	47.2 µM	153 °C	–
COc1ccc2c(c1)O/C(=C\c1ccc(C#N)cc1)C2=O [Aurone 5006, (Z)-4-((6-methoxy-3-oxobenzofuran-2(3H)-ylidene)methyl)benzonitrile]	4.79 µM	–	–	213 µM	> 50 µM	> 50 µM	30.3 µM	180 to 181 °C	–
Cc1ccc(/C=C2\Oc3ccc(Br)cc3C2=O)cc1 [Aurone 6000, (Z)-5-bromo-2-(4-methylbenzylidene)benzofuran-3(2H)-one]	8.43 µM	–	–	> 100 µM	> 50 µM	> 50 µM	> 50 µM	115 to 120 °C	–
CCc1ccc(/C=C2\Oc3ccccc3C2=O)cc1 [Aurone 8001, (Z)-2-(4-ethylbenzylidene)benzofuran-3(2H)-one]	6.42 µM	–	–	> 100 µM	11.4 µM	11.4 µM	46.5 µM	71 to 74 °C	IC50 [1, 18]: 6.42 µM
O=C1/C(=C/c2ccccc2F)Oc2ccccc21 [Aurone 9004, (Z)-2-(2-fluorobenzylidene)benzofuran-3(2H)-one]	10.5 µM	16.83	16.83	176 µM	22 µM	22 µM	> 50 µM	76 to 81 °C	IC50 [1, 18]: 10.5 µM; IC50 [2, 16]: 176 µM; Selectivity L6/Tc [3, 9]: 8.00; Selectivity L6/Tc [3, 10]: 8.00; Selectivity L6/TC-I [3]: 8.00; IC50 [3, 17]: 22 µM; IC50 ([4]; Table 2): > 50 µM

From patent US20200399238A1, “THERAPEUTIC AURONES” (MIDDLE TENNESSEE STATE UNIVERSITY, priority 2016, published 2020)
